Reference: patent publication US11208412B2 (DAEGU-GYEONGBUK MEDICAL INNOVATION FOUNDATION, priority 2017, dated 2021)

Assays:
Assay in all cases: Kinase selectivity, DiscoverX scanMAX Kinase assay panel (% control)
Type in all cases: binding
[1] = molecular target: T1, kinases of the scanMAX Kinase assay panel (Homo sapiens, UniProt P00533, DEL752-759); conditions: EGFR(S752-I759de1); 1 uM
T1 construct: purchased DiscoverX Co. (contract measurement) scanMAX Kinase assay panel
Procedure, shortened: (§1)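 Compounds were tested at 1 uM (in DMSO) against each panel kinase. % control was calculated as (compound − positive control)/(negative control − positive control)×100, where the positive control gives 0% and DMSO gives 100%. Activity toward a kinase was called at % control <35%.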

[2] = molecular target: T2, kinases of the scanMAX Kinase assay panel (Homo sapiens, UniProt Q12851); conditions: MAP4K2; 1 uM
T2 construct: purchased DiscoverX Co. (contract measurement) scanMAX Kinase assay panel
T2 sequence (Q12851 1-820): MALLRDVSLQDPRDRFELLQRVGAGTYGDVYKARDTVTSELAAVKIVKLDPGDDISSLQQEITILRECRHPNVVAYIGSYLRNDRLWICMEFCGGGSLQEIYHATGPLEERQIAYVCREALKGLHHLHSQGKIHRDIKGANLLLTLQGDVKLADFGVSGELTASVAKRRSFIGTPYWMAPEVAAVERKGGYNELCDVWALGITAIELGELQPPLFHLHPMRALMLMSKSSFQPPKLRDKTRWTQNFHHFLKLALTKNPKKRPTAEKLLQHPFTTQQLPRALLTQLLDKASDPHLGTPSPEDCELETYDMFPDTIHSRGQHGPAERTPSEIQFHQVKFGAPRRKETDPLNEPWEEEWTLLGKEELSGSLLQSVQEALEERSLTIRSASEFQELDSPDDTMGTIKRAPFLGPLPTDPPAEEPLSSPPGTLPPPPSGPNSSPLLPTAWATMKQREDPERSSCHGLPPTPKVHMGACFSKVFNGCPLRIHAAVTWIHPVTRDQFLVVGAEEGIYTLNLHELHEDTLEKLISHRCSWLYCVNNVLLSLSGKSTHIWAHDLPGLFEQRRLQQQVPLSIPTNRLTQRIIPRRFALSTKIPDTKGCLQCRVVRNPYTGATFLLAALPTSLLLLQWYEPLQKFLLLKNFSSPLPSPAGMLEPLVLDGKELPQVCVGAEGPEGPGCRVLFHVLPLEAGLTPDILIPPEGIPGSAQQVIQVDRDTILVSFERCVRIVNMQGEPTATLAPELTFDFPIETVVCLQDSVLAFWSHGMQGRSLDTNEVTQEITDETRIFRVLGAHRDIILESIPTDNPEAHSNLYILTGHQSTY
Procedure, shortened: as §1

[3] = molecular target: T3, kinases of the scanMAX Kinase assay panel (Homo sapiens, UniProt Q8WTQ7); conditions: GRK7; 1 uM
T3 construct: purchased DiscoverX Co. (contract measurement) scanMAX Kinase assay panel
T3 sequence (Q8WTQ7 1-553): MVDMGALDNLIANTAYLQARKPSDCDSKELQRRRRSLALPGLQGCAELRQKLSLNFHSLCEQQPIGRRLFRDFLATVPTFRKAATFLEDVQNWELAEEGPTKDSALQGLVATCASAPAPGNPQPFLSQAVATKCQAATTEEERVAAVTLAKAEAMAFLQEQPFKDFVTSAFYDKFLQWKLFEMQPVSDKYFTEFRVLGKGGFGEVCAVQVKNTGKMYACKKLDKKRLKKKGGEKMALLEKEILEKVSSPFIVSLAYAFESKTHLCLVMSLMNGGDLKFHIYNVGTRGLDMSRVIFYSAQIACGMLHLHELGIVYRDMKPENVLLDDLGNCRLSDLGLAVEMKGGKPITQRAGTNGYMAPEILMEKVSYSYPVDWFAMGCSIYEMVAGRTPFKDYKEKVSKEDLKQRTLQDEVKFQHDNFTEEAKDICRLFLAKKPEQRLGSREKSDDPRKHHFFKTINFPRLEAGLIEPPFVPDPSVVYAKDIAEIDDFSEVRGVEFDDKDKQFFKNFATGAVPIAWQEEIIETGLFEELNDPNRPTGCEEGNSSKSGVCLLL
Procedure, shortened: as §1

[4] = molecular target: T4, kinases of the scanMAX Kinase assay panel (Homo sapiens, UniProt P51617); conditions: IRAK1; 1 uM
T4 construct: purchased DiscoverX Co. (contract measurement) scanMAX Kinase assay panel
Procedure, shortened: as §1

[5] = molecular target: T5, kinases of the scanMAX Kinase assay panel (Homo sapiens, UniProt Q9P1W9); conditions: PIM2; 1 uM
T5 construct: purchased DiscoverX Co. (contract measurement) scanMAX Kinase assay panel
Procedure, shortened: as §1

T4 sequence (P51617 whole entry): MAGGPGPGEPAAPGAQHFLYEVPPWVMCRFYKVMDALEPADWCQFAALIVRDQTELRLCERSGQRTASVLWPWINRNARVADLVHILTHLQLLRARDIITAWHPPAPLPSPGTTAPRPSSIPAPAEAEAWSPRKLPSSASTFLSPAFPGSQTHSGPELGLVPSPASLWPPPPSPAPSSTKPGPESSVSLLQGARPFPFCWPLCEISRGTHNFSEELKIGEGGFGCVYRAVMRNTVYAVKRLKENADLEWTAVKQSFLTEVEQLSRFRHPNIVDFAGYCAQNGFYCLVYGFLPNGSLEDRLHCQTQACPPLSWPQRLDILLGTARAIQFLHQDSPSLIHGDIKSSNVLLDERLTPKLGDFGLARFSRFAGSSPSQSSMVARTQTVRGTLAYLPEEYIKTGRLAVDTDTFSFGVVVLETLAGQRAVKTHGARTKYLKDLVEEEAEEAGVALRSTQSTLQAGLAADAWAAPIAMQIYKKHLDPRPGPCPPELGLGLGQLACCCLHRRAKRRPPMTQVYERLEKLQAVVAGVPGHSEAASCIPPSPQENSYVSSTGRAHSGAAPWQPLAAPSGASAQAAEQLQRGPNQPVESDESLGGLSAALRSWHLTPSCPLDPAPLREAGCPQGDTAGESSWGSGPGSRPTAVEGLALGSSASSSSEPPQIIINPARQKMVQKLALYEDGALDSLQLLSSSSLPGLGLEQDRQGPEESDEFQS
T1 sequence (P00533 with tags, fused parts or gaps DEL752-759): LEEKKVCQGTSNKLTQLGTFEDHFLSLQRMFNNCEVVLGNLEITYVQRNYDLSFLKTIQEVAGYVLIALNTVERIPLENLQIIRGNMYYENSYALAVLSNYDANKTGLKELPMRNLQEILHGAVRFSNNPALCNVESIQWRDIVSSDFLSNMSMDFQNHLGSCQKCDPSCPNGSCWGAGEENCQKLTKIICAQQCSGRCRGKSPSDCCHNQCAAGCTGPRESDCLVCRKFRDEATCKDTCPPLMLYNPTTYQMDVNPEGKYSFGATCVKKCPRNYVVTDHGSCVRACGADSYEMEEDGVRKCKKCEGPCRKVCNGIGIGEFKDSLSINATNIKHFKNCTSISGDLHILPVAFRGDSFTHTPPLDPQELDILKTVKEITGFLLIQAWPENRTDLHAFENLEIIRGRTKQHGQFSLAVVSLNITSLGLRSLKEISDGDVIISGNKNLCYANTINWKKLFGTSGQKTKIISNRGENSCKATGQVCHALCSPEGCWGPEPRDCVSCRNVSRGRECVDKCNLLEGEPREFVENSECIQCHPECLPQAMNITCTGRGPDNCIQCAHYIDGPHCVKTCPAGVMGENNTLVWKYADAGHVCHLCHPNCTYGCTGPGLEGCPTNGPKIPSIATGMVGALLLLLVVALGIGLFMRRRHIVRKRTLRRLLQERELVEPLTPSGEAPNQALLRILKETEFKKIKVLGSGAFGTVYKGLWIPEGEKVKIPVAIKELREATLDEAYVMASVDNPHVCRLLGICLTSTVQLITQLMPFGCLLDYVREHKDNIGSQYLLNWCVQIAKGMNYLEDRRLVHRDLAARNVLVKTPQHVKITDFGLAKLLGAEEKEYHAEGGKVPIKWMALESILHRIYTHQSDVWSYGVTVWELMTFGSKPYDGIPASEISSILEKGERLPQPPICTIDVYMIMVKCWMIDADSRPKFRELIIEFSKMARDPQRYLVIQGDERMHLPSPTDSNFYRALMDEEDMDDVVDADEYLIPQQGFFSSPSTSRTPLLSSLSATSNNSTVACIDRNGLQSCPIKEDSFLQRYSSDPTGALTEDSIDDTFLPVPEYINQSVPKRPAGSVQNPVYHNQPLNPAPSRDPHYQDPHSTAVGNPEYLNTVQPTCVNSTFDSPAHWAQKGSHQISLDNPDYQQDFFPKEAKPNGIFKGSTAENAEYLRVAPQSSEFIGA
T5 sequence (Q9P1W9 whole entry): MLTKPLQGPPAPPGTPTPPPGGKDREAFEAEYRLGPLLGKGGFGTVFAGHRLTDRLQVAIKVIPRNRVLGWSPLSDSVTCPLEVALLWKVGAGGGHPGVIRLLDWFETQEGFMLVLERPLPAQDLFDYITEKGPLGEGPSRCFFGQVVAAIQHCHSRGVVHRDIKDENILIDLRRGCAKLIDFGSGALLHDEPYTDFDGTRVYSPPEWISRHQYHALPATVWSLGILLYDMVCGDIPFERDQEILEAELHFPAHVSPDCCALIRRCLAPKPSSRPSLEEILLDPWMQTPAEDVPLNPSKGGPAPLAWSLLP

| Compound | remaining binding at 1 µM [1] | remaining binding at 1 µM [2] | remaining binding at 1 µM [3] | remaining binding at 1 µM [4] | remaining binding at 1 µM [5] |
| --- | --- | --- | --- | --- | --- |
| CCNc1nc(Nc2ccc(C(=O)N3CCC(N4CCOCC4)CC3)cc2OC)nc2[nH]cc(C(F)(F)F)c12 [Example 104, (4-((4-(ethylamino)-5-(trifluoromethyl)-7H-pyrrolo[2,3-d]pyrimidine-2-yl)amino)-3-methoxyphenyl)(4-morpholinopiperidine-1-yl)methanone] | 100% | 69% | 78% | 100% | 100% |
| CNc1nc(Nc2ccc(C(=O)N3CCOCC3)cc2OC)nc2[nH]cc(C#N)c12 [Example 1, 2-((2-methoxy-4-(morpholine-4-carbonyl)phenyl)amino)-4-(methylamino)-7H-pyrrolo[2,3-d]pyrimidine-5-carbonitrile] | 76% | 75% | 71% | 75% | 78% |
| CC1(Nc2nc(Nc3cnn([C@H]4CCN(C5COC5)C[C@@H]4F)c3Cl)nc3[nH]cc(C#N)c23)CC1 [Example 52, 2-((5-chloro-1-((3S,4S)-3-fluoro-1-(oxetane-3-yl)piperidine-4-yl)-1H-pyrazole-4-yl)amino)((1-methylcyclopropyl)amino)-7H-pyrrolo[2,3-d]pyrimidine-5-carbonitrile] | 94% | 1.2% | 65% | 1.4% | 63% |
